Experimental data reported in PubChem BioAssay (NCI).
Where “and” joins values, the source holds several entries; their conditions need not be identical. Equal values may be shown once.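 Following 48 hours of exposure in 96-well plates, responses at five concentrations were used to interpolate endpoints linearly. TGI is the concentration that stops growth completely.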

Assays:
Assay in all cases: NCI tumour cell line growth inhibition, 48 h
XF 498 CNS = system: XF 498 CNS
M19-MEL melanoma = system: M19-MEL melanoma
DLD-1 colon = system: DLD-1 colon
DMS 273 small cell lung = system: DMS 273 small cell lung
DMS 114 small cell lung = system: DMS 114 small cell lung
RXF-631 renal = system: RXF-631 renal

## CC(=O)NC1=C(NCc2ccc(Cl)cc2)C(=O)c2ccccc2C1=O
XF 498 CNS
  TGI: 4.74 µM
M19-MEL melanoma
  TGI: 11.2 µM
DLD-1 colon
  TGI: 13.2 µM
DMS 273 small cell lung
  TGI: 14.6 µM

## Cc1cc(N=C2C=C(Nc3cc(C)on3)C(=O)c3ccccc32)no1
DMS 114 small cell lung
  TGI: 73.7 µM
XF 498 CNS
  TGI: > 100 µM
M19-MEL melanoma
  TGI: 8.12 µM
DLD-1 colon
  TGI: > 100 µM
DMS 273 small cell lung
  TGI: > 100 µM
RXF-631 renal
  TGI: > 100 µM

## c1ccc(Nc2nnc(-c3nsc4ccccc34)o2)cc1
DMS 114 small cell lung
  TGI: > 100 µM
M19-MEL melanoma
  TGI: > 100 µM
DMS 273 small cell lung
  TGI: > 100 µM

## COc1ccc(C(O)/C(=C/n2ccnc2)c2ccccc2)cc1OC (configuration not stated)
DMS 114 small cell lung
  TGI: > 100 µM
XF 498 CNS
  TGI: > 100 µM
M19-MEL melanoma
  TGI: > 100 µM
DLD-1 colon
  TGI: > 100 µM
DMS 273 small cell lung
  TGI: > 100 µM
RXF-631 renal
  TGI: > 100 µM

## COc1ccc(C2=CN3CCC[C@H]3C=C2c2cc(O)c(OC)c(OC)c2)cc1OC
DMS 114 small cell lung
  TGI: 0.0189 µM
M19-MEL melanoma
  TGI: 0.011 µM
DLD-1 colon
  TGI: 0.0627 µM and 0.0119 µM
DMS 273 small cell lung
  TGI: 0.0216 µM

## CC(=O)Nc1ccc(-c2nnc(SCC(=O)Nc3ccccc3C)o2)cc1
DMS 114 small cell lung
  TGI: > 100 µM
M19-MEL melanoma
  TGI: > 100 µM
DLD-1 colon
  TGI: > 100 µM
DMS 273 small cell lung
  TGI: > 100 µM

## COc1nc2[nH]ccc2c(=O)n1C
DMS 114 small cell lung
  TGI: > 100 µM
XF 498 CNS
  TGI: > 100 µM
DLD-1 colon
  TGI: > 100 µM
DMS 273 small cell lung
  TGI: > 100 µM
RXF-631 renal
  TGI: > 100 µM

## Clc1ncnc2c1ncn2CCCCCCCCCCCCn1cnc2c(Cl)ncnc21
DMS 114 small cell lung
  TGI: 3.55 µM
XF 498 CNS
  TGI: 21.6 µM
M19-MEL melanoma
  TGI: 5.7 µM
DLD-1 colon
  TGI: 20.4 µM
DMS 273 small cell lung
  TGI: 14.1 µM
